Publication PMC8457910 (Bioorganic Chemistry, 2021)
Values joined by “and” are separate entries in the source; they are usually repeats but may differ in a detail not shown here. Identical values can stand only once.

Molecular target: NusA-5HB (Severe acute respiratory syndrome coronavirus 2, UniProt P0DTC2)
Assay: Competitive FP assays of small molecules
Assay type: binding, SARS-CoV-2
Conditions: IC50, 8 nM NusA-5HB, 5 nM HR2P-FL, 4% DMSO

Structure (SMILES)	IC50
O=C(/C=C/c1ccc(O)c(O)c1/C=C/c1ccc(O)c(O)c1)O[C@H](Cc1ccc(O)c(O)c1)C(=O)O [Sal-A, Salvianolic acid A]	3.9 µM and ~3.9 µM
O=C(O)/C=C/c1ccc(O)c(O)c1 [caffeic acid, Caffeic acid]	638 µM and ~638 µM
